Assay results taken from publication PMC5111122, “Peptides at the Interface: Self-Assembly of Amphiphilic Designer Peptides and Their Membrane Interaction Propensity” (Biomacromolecules, 2016).

Tests used:
[1] = Differential scanning calorimetry (DSC) on DPPC MLVs; conditions: as evidenced by DSC, EPR, and SAXS
Procedure: DPPC was dissolved in chloroform/methanol (2:1 v/v), mixed, and organic solvents were evaporated under a gentle stream of nitrogen, followed by drying under a vacuum overnight in order to completely remove residual organic solvents. The dry lipid-film was hydrated either by adding double-distilled water (reference) or by adding aqueous solutions of the peptides to finally obtain four different molar ratios: 50:1, 25:1, 10:1, and 5:1 DPPC/peptide (mol/mol). These ratios correspond to peptide concentrations of 1.1, 2.2, 5.5, and 11 mM, respectively. The DPPC concentration was 55 mM. The samples were incubated above the lipid’s phase transition temperature at 50 °C for 2 h, intermitted by vigorous vortexing every 15 min.
DPPC MLVs in the presence and absence of peptides were prepared as described above, incubated for 24 h at room temperature (gently rotating), and diluted with double-distilled water to 2.75 mM DPPC prior to measurements to fit the optimal concentration regime for DSC. Measurements were performed on a Microcal VP-DSC differential scanning calorimeter (Northampton, MA, USA). Scans were recorded at a constant scan rate of 0.5 °C/min from 10 to 80 °C. […] The sharpness of the transition was described by the full width at half-maximum (ΔT1/2), and calorimetric enthalpies (ΔH) were calculated by integrating the peak areas.

[2] = Determination of the critical aggregation concentration (CAC), DPH fluorescence assay; assay type: physicochemical; conditions: excitation 359 nm, emission 428 nm, peptide in double-distilled water cleared with NaOH, aged 1 week, intersection of two fitted straight lines
Procedure: (§1) Lyophilized peptides were dissolved in double-distilled water. NaOH (1 or 0.1 M) was added stepwise until the samples appeared as clear, colorless solutions. Stock solutions (50 mM) were then diluted with double-distilled water to obtain the desired concentrations. All samples were aged for 1 week under an argon atmosphere prior to fluorescence, SAXS, TEM, and attenuated total reflection Fourier transform infrared (ATR-FTIR) spectroscopy measurements.
A 4 μL portion of DPH in methanol (10 μM) was added to 50 μL of peptide solution of varying concentrations. All fluorescence spectra were recorded under identical conditions on a CLARIOstar microplate reader (BMG LABTECH, Ortenberg, Germany) with an excitation wavelength of 359 nm. Fluorescence emission was recorded at 428 nm. Samples were background corrected and normalized to the highest intensity readout. DPH is almost nonfluorescent in aqueous solutions and in the presence of randomly oriented peptide monomers. As soon as oriented structures are formed, a sharp increase in fluorescence intensity is observed. The CAC of the peptide is defined as the intersection point of two straight lines, fitting the low intensity region and the region with linearly increasing intensity.[18]

[3] = TEM of peptide assemblies (negative staining, cryo); assay type: physicochemical
Procedure: as §1
Solutions of A6YD and V4WD2 (11 mM) were incubated for 1 week prior to TEM measurements. Samples were adsorbed onto a glow-discharged carbon-coated copper grid and allowed to settle for 1 min. Excess fluid was carefully removed with filter paper and immediately replaced by 5 μL of a 2% (w/v) uranyl acetate staining solution, which was centrifuged for 6 min at 10000 rpm prior to usage in order to precipitate potentially present aggregates. The uranyl acetate solution was allowed to settle for 30 s, blotted, and replaced by another 5 μL of fresh solution. After 30 s of incubation, the staining solution was removed and the sample was air-dried. Visualization of the samples was achieved by using a Fei Tecnai G^2 20 transmission electron microscope (Eindhoven, The Netherlands) operating at an acceleration voltage of 120 kV. Digital images were made using a Gatan US1000 CCD camera at 2K × 2K resolution.

[4] = not given; remark: listed apart in the source

Substance: Ac-AAAAAAYK-NH2 [A6YK]
- interaction with DPPC MLVs [1]: no interaction
- ∼CAC (critical aggregation concentration) [2]: ~1 mM
- diameter of supramolecular cylinders (TEM, both techniques) ([3]; above the CAC, Fig. S11): 4- 12 nm
- fiber diameter, cryo-TEM ([3]; cryogenic conditions): 8–12 nm
- nanofiber diameter, negative-staining TEM ([3]; negative staining with 2% uranyl acetate, peptide aged 1 week): 4–10 nm

Substance: Ac-AAAAAAYD-OH
- hard sphere radius (Rs): 2.6 nm
- peptide fiber diameter in presence of LDL [4]: 10 nm
